Results on one compound are retold here after ChEMBL document CHEMBL1121747, “Side-chain effects on phenothiazine cation radical reactions” (J Med Chem, 1981).

The nature of this data set: Dissociation constant was reported. Type of data set: physicochemical.

For orientation: pKa means the negative logarithm of the acid dissociation constant. A low value points to a stronger acid or weaker base. Turning to `CN(C)CCN1c2ccccc2Sc2ccc(Cl)cc21` [CHOLRPHENETHAZINE], the pKa worked out at 9.1.
